Experimental data published in patent US20140107219A1, “LOCAL ANAESTHETIC” (VITA (EUROPE) LIMITED, priority 2011, published 2014).
pIC50: −log10 of the molar value. Values joined by “and” are separate entries in the source; they are usually repeats but may differ in a detail not shown here. Equal values may be shown once. Read-outs that look alike come from different tables or passages of the source.

Tests used:
gastrocnemius muscle = assay: In vivo muscle CAP (mCAP, EMG integral) after intramuscular injection, gastrocnemius muscle; parameters: species or system rat
[1] = test system: peripheral nervous system of the rat; settings: in-vivo; cited from earlier work
[2] = test system: isolated sciatic nerve of the rat; assay: Evoked compound action potential (CAP) of the isolated rat sciatic nerve in a three-chamber bath (ex vivo): inhibition and recovery after washout; settings: for IT0: 15 mM (1.7 mg/mL)
[3] = in vivo; cited from earlier work
[4] = molecular target: T1, hNav1.2 sodium channels (SCN2A gene, expressed in CHO cells) (Homo sapiens, UniProt Q99250); assay: Automated patch clamp (PatchXpress 7000A), cloned hNav1.2 in CHO cells, tonic and phasic; format: cell-based; settings: for inhibition at 730 µg/mL / inhibition at 1460 µg/mL / inhibition at 2190 µg/mL / inhibition at 2920 µg/mL: CHO
T1 construct: expressed in transfected cells; host or cells: CHO cells
Description: (§1) 1. Cloned hNav1.2 sodium channels (SCN2A gene, expressed in CHO cells). 2. Cloned hNav1.6 sodium channels (SCN8A gene, expressed in CHO cells).

[5] = molecular target: T2, hNav1.6 sodium channels (SCN8A gene, expressed in CHO cells) (Homo sapiens, UniProt Q9UQD0); assay: Automated patch clamp (PatchXpress 7000A), cloned hNav1.6 in CHO cells, tonic and phasic; format: cell-based; settings: for inhibition at 730 µg/mL / inhibition at 1460 µg/mL / inhibition at 2190 µg/mL / inhibition at 2920 µg/mL: CHO
T2 construct: expressed in transfected cells; host or cells: CHO cells
Description: In this example, the in vitro effects of 2-heptanone on the following ion channels were evaluated at room temperature using the PatchXpress 7000A (Molecular Devices), an automatic parallel patch clamp system:
as §1
The effects of 2-heptanone were evaluated at 0.73, 1.46, 2.19, and 2.92 mg/ml with each concentration tested in two cells (n=2). The duration of exposure to each concentration of 2-heptanone was 5 minutes. Tables 2 to 5 show the individual results from each concentration followed by individual concentration-response curves. The positive controls (Table 6) confirm the sensitivity of the test systems to inhibition.
. Br. J. Pharmacol. 164, 719-730). […]

biceps muscle = assay: In vivo muscle CAP (mCAP, EMG integral) after intramuscular injection, biceps muscle; settings: 7.2 mg/kg intramuscular
Acute LD50 = format: in vivo; settings: from acute LD50

T2 sequence (Q9UQD0 whole entry): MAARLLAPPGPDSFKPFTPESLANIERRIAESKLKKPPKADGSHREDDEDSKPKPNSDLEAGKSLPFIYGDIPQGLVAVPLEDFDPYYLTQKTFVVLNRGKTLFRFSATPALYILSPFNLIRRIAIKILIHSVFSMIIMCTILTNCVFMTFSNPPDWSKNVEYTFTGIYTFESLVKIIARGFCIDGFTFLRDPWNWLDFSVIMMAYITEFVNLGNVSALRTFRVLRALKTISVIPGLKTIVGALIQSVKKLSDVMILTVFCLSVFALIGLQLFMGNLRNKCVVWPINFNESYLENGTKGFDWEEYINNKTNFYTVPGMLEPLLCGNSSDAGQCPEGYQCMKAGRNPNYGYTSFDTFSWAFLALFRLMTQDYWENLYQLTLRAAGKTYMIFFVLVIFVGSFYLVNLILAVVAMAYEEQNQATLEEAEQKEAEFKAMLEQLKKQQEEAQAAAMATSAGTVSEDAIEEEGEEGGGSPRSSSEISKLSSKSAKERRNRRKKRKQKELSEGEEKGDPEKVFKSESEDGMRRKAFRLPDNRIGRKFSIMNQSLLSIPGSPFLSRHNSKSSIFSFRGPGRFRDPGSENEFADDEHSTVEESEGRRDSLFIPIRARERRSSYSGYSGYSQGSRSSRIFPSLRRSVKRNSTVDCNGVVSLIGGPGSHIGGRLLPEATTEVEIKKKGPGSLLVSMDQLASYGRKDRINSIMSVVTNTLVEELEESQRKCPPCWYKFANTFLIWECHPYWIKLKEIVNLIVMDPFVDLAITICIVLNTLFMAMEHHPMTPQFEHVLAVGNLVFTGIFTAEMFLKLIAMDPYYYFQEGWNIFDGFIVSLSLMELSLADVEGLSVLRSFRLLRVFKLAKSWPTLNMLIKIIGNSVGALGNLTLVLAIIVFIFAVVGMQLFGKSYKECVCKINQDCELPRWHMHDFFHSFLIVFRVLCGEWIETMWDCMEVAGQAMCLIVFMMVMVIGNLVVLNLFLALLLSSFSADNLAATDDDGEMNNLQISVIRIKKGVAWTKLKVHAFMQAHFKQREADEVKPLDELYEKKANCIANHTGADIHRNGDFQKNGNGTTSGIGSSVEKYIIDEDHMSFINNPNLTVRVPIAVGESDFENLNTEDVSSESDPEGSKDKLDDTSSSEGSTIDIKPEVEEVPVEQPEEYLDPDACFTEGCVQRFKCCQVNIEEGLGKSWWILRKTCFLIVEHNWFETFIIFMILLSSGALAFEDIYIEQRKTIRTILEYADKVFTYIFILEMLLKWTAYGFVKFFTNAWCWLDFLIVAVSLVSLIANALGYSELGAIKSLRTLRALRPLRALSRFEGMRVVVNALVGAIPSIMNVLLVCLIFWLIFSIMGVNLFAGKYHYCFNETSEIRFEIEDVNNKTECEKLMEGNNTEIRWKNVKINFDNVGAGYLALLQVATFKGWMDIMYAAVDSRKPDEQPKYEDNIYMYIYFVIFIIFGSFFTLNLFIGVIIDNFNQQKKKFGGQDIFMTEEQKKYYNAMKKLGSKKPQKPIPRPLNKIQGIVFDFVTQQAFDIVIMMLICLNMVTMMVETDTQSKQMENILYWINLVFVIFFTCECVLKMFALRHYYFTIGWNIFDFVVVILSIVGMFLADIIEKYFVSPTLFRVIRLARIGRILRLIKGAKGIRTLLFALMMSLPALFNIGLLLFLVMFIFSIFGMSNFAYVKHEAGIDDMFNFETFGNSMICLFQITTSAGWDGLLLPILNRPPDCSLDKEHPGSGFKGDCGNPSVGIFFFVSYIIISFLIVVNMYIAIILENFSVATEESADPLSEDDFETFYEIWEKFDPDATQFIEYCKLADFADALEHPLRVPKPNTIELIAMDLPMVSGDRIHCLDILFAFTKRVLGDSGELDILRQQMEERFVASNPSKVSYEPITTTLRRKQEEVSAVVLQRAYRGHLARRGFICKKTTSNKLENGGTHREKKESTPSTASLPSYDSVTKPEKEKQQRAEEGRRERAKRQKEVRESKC
T1 sequence (Q99250 whole entry): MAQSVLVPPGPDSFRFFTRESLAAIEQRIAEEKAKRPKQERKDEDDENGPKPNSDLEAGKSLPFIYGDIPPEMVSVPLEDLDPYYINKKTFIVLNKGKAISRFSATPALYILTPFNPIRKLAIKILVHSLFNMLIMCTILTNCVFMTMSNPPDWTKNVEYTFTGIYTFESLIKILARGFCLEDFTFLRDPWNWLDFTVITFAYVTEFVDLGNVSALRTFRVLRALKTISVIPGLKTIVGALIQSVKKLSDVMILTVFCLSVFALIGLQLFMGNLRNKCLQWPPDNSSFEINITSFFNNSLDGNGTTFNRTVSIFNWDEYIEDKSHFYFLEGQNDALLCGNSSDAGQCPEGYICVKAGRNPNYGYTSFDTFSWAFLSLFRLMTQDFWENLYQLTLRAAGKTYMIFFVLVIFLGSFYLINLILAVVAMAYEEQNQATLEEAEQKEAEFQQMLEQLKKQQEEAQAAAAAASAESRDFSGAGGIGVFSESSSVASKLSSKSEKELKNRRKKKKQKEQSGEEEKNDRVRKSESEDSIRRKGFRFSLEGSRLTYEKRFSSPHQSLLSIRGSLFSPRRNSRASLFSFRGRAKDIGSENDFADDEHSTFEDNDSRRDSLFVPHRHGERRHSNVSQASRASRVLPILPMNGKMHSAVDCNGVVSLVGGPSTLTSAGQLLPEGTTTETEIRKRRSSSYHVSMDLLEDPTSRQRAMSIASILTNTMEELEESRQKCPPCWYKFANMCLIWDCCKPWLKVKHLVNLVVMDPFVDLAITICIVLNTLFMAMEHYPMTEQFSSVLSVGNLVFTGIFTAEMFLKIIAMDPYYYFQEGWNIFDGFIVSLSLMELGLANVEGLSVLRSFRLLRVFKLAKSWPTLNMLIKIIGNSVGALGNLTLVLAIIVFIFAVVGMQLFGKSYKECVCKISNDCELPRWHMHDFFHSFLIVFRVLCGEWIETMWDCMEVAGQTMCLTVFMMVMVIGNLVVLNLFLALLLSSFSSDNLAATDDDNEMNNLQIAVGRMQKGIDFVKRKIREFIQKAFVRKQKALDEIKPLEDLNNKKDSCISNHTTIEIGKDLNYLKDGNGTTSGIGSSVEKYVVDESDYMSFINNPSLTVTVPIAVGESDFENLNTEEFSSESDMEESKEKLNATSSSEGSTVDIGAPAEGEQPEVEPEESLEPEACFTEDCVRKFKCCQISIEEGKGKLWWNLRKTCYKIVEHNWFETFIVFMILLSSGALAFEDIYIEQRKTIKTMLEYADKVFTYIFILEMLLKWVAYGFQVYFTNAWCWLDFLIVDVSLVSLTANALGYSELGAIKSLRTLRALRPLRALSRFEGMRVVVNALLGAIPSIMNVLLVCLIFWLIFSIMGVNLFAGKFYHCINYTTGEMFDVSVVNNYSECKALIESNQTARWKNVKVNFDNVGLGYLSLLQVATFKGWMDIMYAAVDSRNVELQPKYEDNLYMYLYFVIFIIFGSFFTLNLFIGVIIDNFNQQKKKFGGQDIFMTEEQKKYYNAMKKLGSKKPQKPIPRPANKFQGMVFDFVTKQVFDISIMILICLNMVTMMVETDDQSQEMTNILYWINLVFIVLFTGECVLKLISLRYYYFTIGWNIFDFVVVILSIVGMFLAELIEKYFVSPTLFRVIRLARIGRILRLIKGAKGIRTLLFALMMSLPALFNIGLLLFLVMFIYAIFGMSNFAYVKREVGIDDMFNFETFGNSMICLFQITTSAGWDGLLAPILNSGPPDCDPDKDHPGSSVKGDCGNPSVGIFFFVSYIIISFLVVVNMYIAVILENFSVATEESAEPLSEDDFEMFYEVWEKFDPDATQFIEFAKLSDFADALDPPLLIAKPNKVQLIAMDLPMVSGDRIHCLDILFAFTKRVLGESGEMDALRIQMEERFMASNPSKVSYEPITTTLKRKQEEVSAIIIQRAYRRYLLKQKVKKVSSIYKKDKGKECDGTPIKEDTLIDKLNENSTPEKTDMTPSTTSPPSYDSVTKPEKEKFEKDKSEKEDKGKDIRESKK

CCCCCC(C)=O [2-heptanone]
recovery of mCAP after 3 h (gastrocnemius muscle; 7.2 mg/kg intramuscular): 65.4±7.78% and 61%
IT50 of the integral of mCAPs (gastrocnemius muscle; 7.2 mg/kg intramuscular, in Tween 80 + 0.9% NaCl): 25.78 s
IT50 of the integral of mCAPs (gastrocnemius muscle; 10.8 mg/kg intramuscular): 11.16 s
recovery of mCAP, % of initial values after 3 h (gastrocnemius muscle; 10.8 mg/kg intramuscular): no recovery
times more effective than lidocaine (gastrocnemius muscle; similar IT50 at 7.2 mg/kg vs 10.8 mg/kg lidocaine): 1.5 times
neurotoxic effects on the peripheral nervous system [1]: no neurotoxic effects
IT100 / IT0 ([2]; 1.41 mg/mL): 517.5 ± 25.62 s
IT100 / IT0 ([2]; 1.41 mg/mL, listed as 2-Heptanone): 517.5 ± 25.62 s
IT100 / IT0 ([2]; 2.28 mg/mL (20 mM)): 358.8 ± 18.07 s
IT100 / IT0 ([2]; 2.28 mg/mL (20 mM), listed as 2-Heptanone): 358.8 ± 18.07 s
IT50 (time to inhibit CAP amplitude to 50% of control) ([2]; 10 mg/mL): 22.3 ± 1.1 s
CAP decreased to (% of control) ([2]; 10 mg/mL, within 70 seconds of treatment): 24%
IT50 (time to inhibit CAP amplitude to 50% of control) ([2]; 10 mg/mL, listed as 2-Heptanone): 22.3 ± 1.1 s
IT0 ([2]; stagnant saline, n=5): 5 to 9 min
IT0 ([2]; stirred saline, individual nerves): 5 min and 10 min
recovery of the CAP after washout, % of control ([2]; after 1.41 mg/mL): above 87.5%
IC50 (concentration required to inhibit the CAP to 50% of control) ([2]; estimated from time-response curves, GraphPad Prism 5): 469 ± 2 µg/mL
neurotoxic effect on nerve fibres ([2]; ex vivo, within the limits of 24 h): no neurotoxic effect
fold slower than lidocaine ([2]; whole nerve preparation): 1.54 fold
acute LD50 [3]: 1760 mg/kg
times less active than lidocaine, hNav1.2 phasic [4]: 12.8 times
times less active than lidocaine, hNav1.2 tonic [4]: 7 times
Individual Data Points (% Inhibition), Nav1.2 phasic ([4]; 0.73 mg/ml, single cells): 44.6%
Individual Data Points (% Inhibition), Nav1.2 tonic ([4]; 0.73 mg/ml, single cells): 27. %
Individual Data Points (% Inhibition), Nav1.2 phasic ([4]; 1.46 mg/ml, single cells): 64.7%
Individual Data Points (% Inhibition), Nav1.2 tonic ([4]; 1.46 mg/ml, single cells): 45.8%
Individual Data Points (% Inhibition), Nav1.2 phasic ([4]; 2.19 mg/ml, single cells): 92.4%
Individual Data Points (% Inhibition), Nav1.2 tonic ([4]; 2.19 mg/ml, single cells): 73. %
Individual Data Points (% Inhibition), Nav1.2 phasic ([4]; 2.92 mg/ml, single cells): 99.8%
Individual Data Points (% Inhibition), Nav1.2 tonic ([4]; 2.92 mg/ml, single cells): 89. %
inhibition at 730 µg/mL ([4]; 0.73 mg/ml, single cells, read-out: Individual Data Points (% Inhibition), Nav1.2 phasic): 44.3%
inhibition at 730 µg/mL ([4]; 0.73 mg/ml, single cells, read-out: Individual Data Points (% Inhibition), Nav1.2 tonic): 31.5%
inhibition at 730 µg/mL ([4]; 0.73 mg/ml, read-out: Mean % Nav1.2 Phasic Inhibition): 44.4%
inhibition at 730 µg/mL ([4]; 0.73 mg/ml, read-out: Mean % Nav1.2 Tonic Inhibition): 29.7%
inhibition at 1460 µg/mL ([4]; 1.46 mg/ml, single cells, read-out: Individual Data Points (% Inhibition), Nav1.2 phasic): 67.9%
inhibition at 1460 µg/mL ([4]; 1.46 mg/ml, single cells, read-out: Individual Data Points (% Inhibition), Nav1.2 tonic): 49.3%
inhibition at 1460 µg/mL ([4]; 1.46 mg/ml, read-out: Mean % Nav1.2 Phasic Inhibition): 66.3%
inhibition at 1460 µg/mL ([4]; 1.46 mg/ml, read-out: Mean % Nav1.2 Tonic Inhibition): 47.6%
inhibition at 2190 µg/mL ([4]; 2.19 mg/ml, single cells, read-out: Individual Data Points (% Inhibition), Nav1.2 phasic): 87.6%
inhibition at 2190 µg/mL ([4]; 2.19 mg/ml, single cells, read-out: Individual Data Points (% Inhibition), Nav1.2 tonic): 56.7%
inhibition at 2190 µg/mL ([4]; 2.19 mg/ml, read-out: Mean % Nav1.2 Phasic Inhibition): 90%
inhibition at 2190 µg/mL ([4]; 2.19 mg/ml, read-out: Mean % Nav1.2 Tonic Inhibition): 65.1%
inhibition at 2920 µg/mL ([4]; 2.92 mg/ml, single cells, read-out: Individual Data Points (% Inhibition), Nav1.2 phasic): 98.2%
inhibition at 2920 µg/mL ([4]; 2.92 mg/ml, single cells, read-out: Individual Data Points (% Inhibition), Nav1.2 tonic): 78.7%
inhibition at 2920 µg/mL ([4]; 2.92 mg/ml, read-out: Mean % Nav1.2 Phasic Inhibition): 99%
inhibition at 2920 µg/mL ([4]; 2.92 mg/ml, read-out: Mean % Nav1.2 Tonic Inhibition): 83.9%
IC50 ([4]; Example 7, n=2, read-out: Nav1.2 phasic IC50 (converted)): 7.57 mM and 7.58 mM
IC50 ([4]; Example 7, n=2, read-out: Nav1.2 tonic IC50 (converted)): 12.1 mM
IC50 ([4]; Example 18, mean ± SEM, read-out: hNav1.2 IC50, phasic (converted)): 11.2 mM
IC50 ([4]; Example 18, mean ± SEM, read-out: hNav1.2 IC50, tonic (converted)): 16.6 mM
Hill coefficient, Nav1.2 phasic ([4]; FIG. 41, mean±SE): 1.24±0.17
Hill coefficient, Nav1.2 tonic ([4]; FIG. 41, mean±SE): 1.44±0.02
times less active than lidocaine, hNav1.6 phasic [5]: 11.7 times
times less active than lidocaine, hNav1.6 tonic [5]: 4.6 times
Individual Data Points (% Inhibition), Nav1.6 phasic ([5]; 0.73 mg/ml, single cells): 81.1%
Individual Data Points (% Inhibition), Nav1.6 tonic ([5]; 0.73 mg/ml, single cells): 52.6%
Individual Data Points (% Inhibition), Nav1.6 phasic ([5]; 1.46 mg/ml, single cells): 99.9%
Individual Data Points (% Inhibition), Nav1.6 tonic ([5]; 1.46 mg/ml, single cells): 70.4%
Individual Data Points (% Inhibition), Nav1.6 phasic ([5]; 2.19 mg/ml, single cells): 101.0%
Individual Data Points (% Inhibition), Nav1.6 tonic ([5]; 2.19 mg/ml, single cells): 100.1%
Individual Data Points (% Inhibition), Nav1.6 phasic ([5]; 2.92 mg/ml, single cells): 100.7%
Individual Data Points (% Inhibition), Nav1.6 tonic ([5]; 2.92 mg/ml, single cells): 99.9%
inhibition at 730 µg/mL ([5]; 0.73 mg/ml, single cells, read-out: Individual Data Points (% Inhibition), Nav1.6 phasic): 94%
inhibition at 730 µg/mL ([5]; 0.73 mg/ml, single cells, read-out: Individual Data Points (% Inhibition), Nav1.6 tonic): 40.9%
inhibition at 730 µg/mL ([5]; 0.73 mg/ml, read-out: Mean % Inhibition, Nav1.6 phasic): 87.6%
inhibition at 730 µg/mL ([5]; 0.73 mg/ml, read-out: Mean % Nav1.6 Tonic Inhibition): 46.8%
inhibition at 1460 µg/mL ([5]; 1.46 mg/ml, single cells, read-out: Individual Data Points (% Inhibition), Nav1.6 phasic): 102%
inhibition at 1460 µg/mL ([5]; 1.46 mg/ml, single cells, read-out: Individual Data Points (% Inhibition), Nav1.6 tonic): 70.8%
inhibition at 1460 µg/mL ([5]; 1.46 mg/ml, read-out: Mean % Inhibition, Nav1.6 phasic): 101%
inhibition at 1460 µg/mL ([5]; 1.46 mg/ml, read-out: Mean % Nav1.6 Tonic Inhibition): 70.6%
inhibition at 2190 µg/mL ([5]; 2.19 mg/ml, single cells, read-out: Individual Data Points (% Inhibition), Nav1.6 phasic): 102%
inhibition at 2190 µg/mL ([5]; 2.19 mg/ml, single cells, read-out: Individual Data Points (% Inhibition), Nav1.6 tonic): 96.5%
inhibition at 2190 µg/mL ([5]; 2.19 mg/ml, read-out: Mean % Inhibition, Nav1.6 phasic): 101%
inhibition at 2190 µg/mL ([5]; 2.19 mg/ml, read-out: Mean % Nav1.6 Tonic Inhibition): 98.3%
inhibition at 2920 µg/mL ([5]; 2.92 mg/ml, single cells, read-out: Individual Data Points (% Inhibition), Nav1.6 phasic): 101%
inhibition at 2920 µg/mL ([5]; 2.92 mg/ml, single cells, read-out: Individual Data Points (% Inhibition), Nav1.6 tonic): 96.1%
inhibition at 2920 µg/mL ([5]; 2.92 mg/ml, read-out: Mean % Inhibition, Nav1.6 phasic): 101%
inhibition at 2920 µg/mL ([5]; 2.92 mg/ml, read-out: Mean % Nav1.6 Tonic Inhibition): 98%
pIC50 ([5]; Example 7, n=2, read-out: Nav1.6 phasic IC50): > 2.19
IC50 ([5]; Example 7, n=2, read-out: Nav1.6 tonic IC50 (converted)): 7.06 mM and 7.07 mM
hNav1.6 IC50, phasic ([5]; Example 18, mean ± SEM): 820 ± 30 µg/mL
IC50 ([5]; Example 18, mean ± SEM, read-out: hNav1.6 IC50, tonic (converted)): 11.7 mM
Hill coefficient, Nav1.6 phasic ([5]; FIG. 41, mean±SE): 1.10±0.06
Hill coefficient, Nav1.6 tonic ([5]; FIG. 41, mean±SE): 1.35±0.12
IT50 of mCAPs (biceps muscle): 9.13 ± 0.73 s and 9.13 s
times less toxic than lidocaine (Acute LD50): 5.6 times
